Broadly, the Ki is the equilibrium dissociation constant of an inhibitor or competing ligand from its target. A high value points to weaker binding.

Some results are limits rather than exact numbers.

For one test, the system named is Mustela putorius furo. The experiment in a line: In vivo antiemetic activity against radiation-induced emesis in ferret. The format is functional.
A further test has as its target Substance-P receptor (Homo sapiens, UniProt P25103). The experiment in a line: Inhibition of [3H]-substance P binding to human NK1 receptor expressed in chinese hamster ovary cells. The format is cell-based, CHO.

Substance-P receptor, sequence (P25103 whole entry): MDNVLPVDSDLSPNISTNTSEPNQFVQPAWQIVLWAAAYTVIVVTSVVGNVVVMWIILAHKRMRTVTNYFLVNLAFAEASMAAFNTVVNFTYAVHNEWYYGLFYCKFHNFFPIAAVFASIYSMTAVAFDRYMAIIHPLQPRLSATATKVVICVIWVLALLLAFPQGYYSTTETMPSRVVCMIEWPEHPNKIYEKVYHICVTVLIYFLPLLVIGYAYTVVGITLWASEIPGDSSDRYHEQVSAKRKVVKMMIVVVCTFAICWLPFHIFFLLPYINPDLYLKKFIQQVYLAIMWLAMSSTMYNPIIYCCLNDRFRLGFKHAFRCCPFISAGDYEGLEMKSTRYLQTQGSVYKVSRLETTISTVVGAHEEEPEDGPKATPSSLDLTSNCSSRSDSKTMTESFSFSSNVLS

In the test on Mustela putorius furo, `COc1ccc(-n2nnnc2C)cc1CN[C@H]1CCCN[C@H]1c1ccccc1.Cl.Cl` gave an ED90 of 0.15 mg/kg. Further, at Substance-P receptor, the Ki is 0.0501 nM.

In the case of `CCCc1nnnn1-c1ccc(OC)c(CN[C@H]2CCCN[C@H]2c2ccccc2)c1.Cl.Cl`, the ED90 in the test on Mustela putorius furo is greater than 3 mg/kg. Affinity on Substance-P receptor was put at a Ki of 0.0398 nM.

As for `COc1ccc(-n2nnnc2N)cc1CN[C@H]1CCCN[C@H]1c1ccccc1`, the Ki at Substance-P receptor was 1 nM.

Consider `COc1ccc(-n2nnnc2S(C)(=O)=O)cc1CN[C@H]1CCCN[C@H]1c1ccccc1.Cl.Cl`, for which, in the test on Mustela putorius furo, the ED90 is greater than 1 mg/kg. Further, the Ki at Substance-P receptor is 0.0631 nM.

As to `CCN(CC)c1nnnn1-c1ccc(OC)c(CN[C@H]2CCCN[C@H]2c2ccccc2)c1`, the affinity on Substance-P receptor, expressed as Ki, was 2 nM.

In the test with Mustela putorius furo, `CCc1nnnn1-c1ccc(OC)c(CN[C@H]2CCCN[C@H]2c2ccccc2)c1.Cl.Cl` yielded an ED90 of 0.3 mg/kg. The compound also showed a Ki on Substance-P receptor of 0.0501 nM.

The compound `COc1ccc(-n2nnnc2SC)cc1CN[C@H]1CCCN[C@H]1c1ccccc1.Cl.Cl` showed an ED90 in the test on Mustela putorius furo of 1 mg/kg. The compound also had a Ki at Substance-P receptor of 0.0398 nM.

In turn, `COc1ccc(-n2cnnn2)cc1CN[C@H]1CCCN[C@H]1c1ccccc1.Cl.Cl` registered an ED90 with Mustela putorius furo of 0.1 mg/kg. Moreover, the Ki at Substance-P receptor was 0.0398 nM.

As for `COc1ccc(-n2nnnc2-c2ccccc2)cc1CN[C@H]1CCCN[C@H]1c1ccccc1.Cl.Cl`, the ED90 in the test with Mustela putorius furo is greater than 1 mg/kg. At Substance-P receptor, this compound had a Ki of 0.398 nM.

On to `COc1ccc(-n2nnnc2NC(C)=O)cc1CN[C@H]1CCCN[C@H]1c1ccccc1`, for which the Ki at Substance-P receptor is 0.251 nM.

In turn, `COc1ccc(-n2nnnc2C2CC2)cc1CN[C@H]1CCCN[C@H]1c1ccccc1.Cl.Cl` gave an ED90 with Mustela putorius furo greater than 1 mg/kg. The same compound had a Ki at Substance-P receptor of 0.0794 nM.

For `COc1ccc(-n2nnnc2C(F)(F)F)cc1CN[C@H]1CCCN[C@H]1c1ccccc1.Cl.Cl` [VOFOPITANT DIHYDROCHLORIDE], the ED90 in the test with Mustela putorius furo stood at 0.03 mg/kg. Further, affinity at Substance-P receptor was put at a Ki of 0.0251 nM.

These data come from ChEMBL document CHEMBL1129726, “Tetrazole NK1 receptor antagonists: The identification of an exceptionally potent orally active antiemetic compound” (Bioorg Med Chem Lett, 1996).
